Results as given in patent US9557338B2 (SIGNAL PHARMACEUTICALS, LLC, priority 2012, dated 2017).
Read-outs that look alike come from different tables or passages of the source.

Experiments:
[1] = system: Phospho-p70S6K (T389); experiment: MSD assay, phospho-p70S6K (T389) in cell lysates; assay type: cell-based
Experimental: Determination of Phospho-p70S6K (T389) in Cell Lysates.
MSD® biomarker detection assays provide a rapid and convenient method for measuring the total and phosphorylated levels of protein targets within a single small-volume sample. In the assay, an antibody for a specific protein target is coated on one electrode (or spot) per well. The samples (cell lysates) are added to the well with a solution containing the detection antibody labeled with an electrochemiluminescent (ECL) compound, MSD SULFOTAG™ label, over the course of one or more incubation periods. The total protein present in the sample binds to the capture antibodies immobilized on the working electrode surface; recruitment of the labeled detection antibody by bound phospho-p70S6K completes the sandwich. MSD Read Buffer that provides the appropriate chemical environment for ECL is added and the plate is read using an MSD SECTOR™ Imager. Inside the SECTOR Imager, a voltage is applied to the plate electrodes which cause the labels bound to the electrode surface to emit light. The instrument measures intensity of the emitted light to afford a quantitative measure of the amount of phosphorylated protein present in the sample.
Cells were plated in 96-well flat bottom plates at the required density determined for each cell line and the cells were allowed to equilibrate at 37° C., 5% CO2 overnight. The following day, the cells were treated with Compound 1 over a range of concentrations for one hour in 5% CO2 at 37° C. After the incubation period, the culture medium was removed carefully with an aspirator. The plate was placed on ice and 50 μL of 1× Tris Lysis Buffer were added to each well. The plate was placed on a shaker at 4° C. for one hour to lyse the cells. At that point, the plate was either frozen at −80° C. for later analysis or immediately assayed for phosphoproteins as described below. To monitor interassay variability, Compound 1 was compared among all plates as a reference standard.
The assay plate was incubated with 150 μL of MSD Blocking Buffer for one hour with shaking at room temperature. The plates were washed 3 times with Tris Wash Buffer. Then 35 μL of cell lysate was added to the wells and incubated for one hour with shaking at room temperature. The solution was removed from the wells and the plate was washed 3 times with wash buffer. Twenty-five microliters of the appropriate antibody solution was then incubated for one hour with shaking at room temperature. The solution was removed from the wells and the plate was washed 3 times with wash buffer. Then 150 μL of 1×MSD Read Buffer T was added to each well. The plate was read on the SECTOR Imager plate reader.

[2] = system: GSK-3β; experiment: MSD assay, GSK-3β phosphorylation in cell lysates; assay type: cell-based
[3] = PC3 cell line, read-out: MSD p70S6K
[4] = PC3 cell line, read-out: MSD GSK-3β

Row | Structure (SMILES) | IC50 [1, 3] | IC50 [2, 4] | further results
1 | Cc1nc(-c2nnc[nH]2)ccc1-c1cnc2c(n1)N(C(C)C)C(=O)CN2 [A-13, 1-isopropyl-7-(2-methyl-6-(4H-1,2,4-triazol-3-yl)pyridin-3-yl)-3,4-dihydropyrazino[2,3-b]pyrazin-2(1H)-one] | – | – | IC50 ([1]; Homo sapiens, HCT-116, HCT116 cell line, IGF, read-out: MSD p70S6K (IGF)): 941 nM; IC50 ([1]; Homo sapiens, U-87 MG, U87MG cell line, read-out: MSD p70S6K): 351 nM; IC50 ([2]; Homo sapiens, HCT-116, HCT116 cell line, IGF, read-out: MSD GSK-3β (IGF)): > 2000 nM; IC50 ([2]; Homo sapiens, U-87 MG, U87MG cell line, read-out: MSD GSK-3β): > 2000 nM
2 | Cc1c(-c2cnc3c(n2)N(C2CCOCC2)CC(=O)N3)ccc(-c2nc[nH]n2)c1F [C-111] | 58 nM | > 150 nM | –
3 | Nc1ncc(-c2cnc3c(n2)N(CCC2CCOCC2)C(=O)CN3)cn1 [C-116] | 303 nM | 3990 nM | –
4 | Cc1cc(-c2nc[nH]n2)c(F)cc1-c1cnc2c(n1)N(C1CCOCC1)CC(=O)N2 [C-122] | 6 nM | 323 nM | –
5 | Cc1cc(-c2nc[nH]n2)c(F)cc1-c1cnc2c(n1)N(C1CCC(O)CC1)CC(=O)N2 (stereo not shown) [C-123] | 13 nM | > 500 nM | –
6 | O=C1CN(C2CCOCC2)c2nc(-c3ccc(-c4ncn[nH]4)nc3)cnc2N1 [C-125] | 73 nM | > 500 nM | –
7 | CCN1C(=O)CNc2ncc(-c3cc(F)c(-c4nc[nH]n4)cc3C)nc21 [C-127] | 4 nM | 33 nM | –
8 | Cc1cc(-c2nc[nH]n2)c(F)cc1-c1cnc2c(n1)N(C(C)C)C(=O)CN2 [C-128] | 21 nM | 1 nM | –
9 | COCCN1C(=O)CNc2ncc(-c3cc(F)c(-c4nc[nH]n4)cc3C)nc21 [C-129] | 1 nM | > 500 nM | –
10 | COCCN1CC(=O)Nc2ncc(-c3cc(F)c(-c4nc[nH]n4)cc3C)nc21 [C-131] | 118 nM | > 500 nM | –
11 | Cc1cc(-c2nc[nH]n2)c(F)cc1-c1cnc2c(n1)N(C1CCC(O)CC1)CC(=O)N2 (stereo not shown) [C-133] | 61 nM | > 500 nM | –
12 | CC(C)N1CC(=O)Nc2ncc(-c3ccc(-c4nc[nH]n4)nc3)nc21 [C-134] | 172 nM | > 500 nM | –
13 | COCCN1CC(=O)Nc2ncc(-c3ccc(-c4nc[nH]n4)nc3)nc21 [C-135] | > 1500 nM | > 1500 nM | –
14 | COC1CCC(N2C(=O)CNc3ncc(-c4cc(F)c(-c5ncn[nH]5)cc4C)nc32)CC1 (stereo not shown) [C-137] | 52 nM | 394 nM | –

Further lines, with some results ahead:

Row | IC50 [1, 3] | IC50 [2, 4] | Structure (SMILES) | further results
15 | 22 nM | > 150 nM | CO[C@H]1CC[C@@H](N2CC(=O)Nc3ncc(-c4ccc(-c5nc[nH]n5)c(F)c4C)nc32)CC1 [C-110] | –
16 | 36 nM | > 500 nM | COCCN1C(=O)CNc2ncc(-c3ccc(-c4cc[nH]n4)cc3)nc21 [C-112] | –
17 | > 500 nM | > 500 nM | O=C1CNc2ncc(-c3ccc(O)nc3)nc2N1CCC1CCOCC1 [C-113] | –
18 | 184 nM | 2030 nM | CNc1ccc(-c2cnc3c(n2)N(CCC2CCOCC2)C(=O)CN3)cn1 [C-114] | –
19 | > 500 nM | > 500 nM | Nc1cc(-c2cnc3c(n2)N(CCC2CCOCC2)C(=O)CN3)ccn1 [C-115] | –
20 | > 5000 nM | > 5000 nM | O=C1CNc2ncc(-c3cccc4[nH]ncc34)nc2N1CCC1CCOCC1 [C-117] | –
21 | 170 nM | 3930 nM | Cc1cc(C(N)=O)ncc1-c1cnc2c(n1)N(C(C)C)C(=O)CN2 [C-118] | –
22 | 10 nM | 323 nM | CCN1CC(=O)Nc2ncc(-c3cc(F)c(-c4nc[nH]n4)cc3C)nc21 [C-119] | –
23 | 12 nM | 99 nM | Cc1cc(-c2nc[nH]n2)c(F)cc1-c1cnc2c(n1)N(C(C)C)CC(=O)N2 [C-120] | –
24 | 289 nM | > 500 nM | CCN1CC(=O)Nc2ncc(-c3ccc(-c4nc[nH]n4)nc3)nc21 [C-124] | –
25 | 480 nM | 1140 nM | O=C1CNc2ncc(-c3ccnc(O)c3)nc2N1CCC1CCOCC1 [C-126] | –
26 | < 0.835 nM | 12 nM | Cc1cc(-c2nc[nH]n2)c(F)cc1-c1cnc2c(n1)N([C@H]1CC[C@H](O)CC1)C(=O)CN2 [C-130] | –
27 | 222 nM | > 500 nM | COC1CCC(N2CC(=O)Nc3ncc(-c4cc(F)c(-c5ncn[nH]5)cc4C)nc32)CC1 (stereo not shown) [C-132] | –
28 | 82 nM | > 500 nM | COC1CCC(N2CC(=O)Nc3ncc(-c4ccc(-c5ncn[nH]5)nc4)nc32)CC1 (stereo not shown) [C-136] | –
